Data: article PMC12406256, “Food Additives Inhibit Intestinal Drug Transporters but Have Limited Effect on In Vitro Drug Permeability” (Molecular Pharmaceutics, 2025)

Tested on: Caco-2 cells
Test: in vitro
Conditions: Caco-2
Protocol: Caco-2 cells were cultured on 12-well Transwell polycarbonate membrane inserts with a 0.4 μm pore size (Corning Incorporated, Kennebunk, ME) at 37 °C and 5% CO2 for 21–24 days prior to the experiment as described in Hubatsch et al. The culture medium (DMEM, 10% FBS, 1% MEM nonessential amino acids, 100 U/mL penicillin–streptomycin) was changed every second day. Transepithelial electrical resistance (TEER) was measured before and after the permeability assay with a Millicell-ERS electrode (Millipore, Bedford, MA) attached to an epithelial volt ohm meter (EVOM, World Precision Instruments, Sarasota, FL). The permeability assay was performed according to a previously published protocol. […] Sulfasalazine is a substrate of BCRP and OATP2B1. , The DMSO concentration was 0.45–1.5%. Before the experiment, inserts were washed and preincubated in the transport buffer for 20 min shaking at 37 °C. Sulfasalazine and LY permeability was measured in the apical to basolateral direction at five time points (20, 40, 60, 90, and 120 min) and, additionally, in the basolateral to apical direction to calculate the efflux ratio. […] […] LY (250 μM) was added on the donor side of all inserts to measure the integrity of the cell monolayer. Before analysis, samples were centrifuged at 2755g for 30 min, and donor solution and mass balance samples were diluted 1:100. LY fluorescence was measured with a Varioskan LUX microplate reader (Thermo Fisher Scientific) at 430 nm excitation and 538 nm emission. Sulfasalazine was analyzed with ultra-performance liquid chromatography (UPLC) using a Syncronis C18 column (1.7 μm particle size, 50 × 2.1 mm + 0.2 μm Waters online filter) (Thermo Fisher Scientific) coupled with Waters Acquity UPLC interfaced with a PDA detector both controlled by the Waters Empower software version 3. The UPLC was operated in gradient mode at 354 nm. Solvents were 0.015 M phosphate buffer pH 2 (A), acetonitrile (B), 1:1 acetonitrile/methanol (strong needle wash), and 20% acetonitrile (weak needle wash). Column temperature was 30 °C, injection volume was 10 μL, retention time was 1.46 min, and flow rate was 0.5 mL/min. The gradient was 25% B → 70% B (0–3 min), 70% B → 25% B (3.00–3.01 min), and 25% B (3.01–4 min). The data were collected for the first 180 s of each UPLC run.
In the Caco-2 permeability assay, the apparent permeability (P app) of sulfasalazine was calculated using the following equation: Papp=(dQ/dt)(1/A×C0) where dQ/dt is the rate of permeation across the cells (nmol/min), A is the surface area of the filter (1.12 cm^2), and C 0 is the initial concentration in the donor chamber (μM). The efflux ratio of sulfasalazine was calculated by dividing the P app in the basolateral to the apical direction by the P app in the apical to basolateral direction. The TEER for each cell insert was calculated before and after the experiment by multiplying the mean resistance of three measurements by the surface area of the filter (1.12 cm^2). Mass balance was calculated by dividing the […]. All experiments were done in triplicate wells, and the IC50 and Caco-2 permeability assays were repeated three times.

## CC1=C(/C=C/C(C)=C/C=C/C(C)=C/C=C/C=C(C)/C=C/C=C(C)/C=C/C2=C(C)CCCC2(C)C)C(C)(C)CCC1 [beta-carotene]
  effect on sulfasalazine permeability (P app): None of the selected food additives showed any effect
